In US7803801B2, “Aminopyridine compounds having Syk inhibitory activity” (Japan Tobacco, Inc., priority 2005, dated 2010):
Like-named read-outs stand apart in the source and are kept apart here.

Experiments:
[1] = tested on: cultured human mast cells; assay: Degranulation inhibition test using cultured human mast cells (IgE cross-linking, β-Hexosaminidase release); type: cell-based; conditions: Mast cell, cultured human mast cells, read-out: human degranulation ave. IC50
Outline: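 CD34+ cord-blood cells cultured ≥8 weeks with SCF/IL-6/IL-3; FcεRI primed 5 days with rhIL-4 (1 ng/mL) and hIgE (0.5 μg/mL). Compound (0.1% DMSO) preincubated 10 min at 37 °C, then anti-IgE (final 10 μg/mL) 30 min; released β-hexosaminidase read at 405 nm versus total lysate, IC50 (M).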

[2] = molecular target: GST-Syk Full Protein (human) (Homo sapiens, UniProt P43405); assay: Syk kinase inhibition test (HTRF method); type: biochemical
Outline: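 Human GST-Syk full-length (6.4 nM) phosphorylated biotin-EDPDYEWPSA-NH2 (250 nM) with 100 μM ATP in HEPES pH 7.0/MgCl2 buffer, 2% DMSO, 30 min at room temperature. EDTA stop, then HTRF detection (streptavidin-XL665, Eu anti-phosphotyrosine) after 1 h; 665/620 ratio read.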

[3] = Tables 1-x, compounds A, read-out: sykHTRF ave IC50
[4] = anti-hIgE stimulation, β-Hexosaminidase index, average
[5] = HTRF, 100 μM ATP, 30 min room temperature, average, read-out: sykHTRF ave IC50
[6] = Tables 2-x, thiophene compounds B
[7] = Tables 2-x, thiophene compounds B, read-out: sykHTRK ave IC50

| SMILES | IC50 ([1]; Tables 1-x, compounds A) | IC50 [2, 3] | IC50 [1, 4] | IC50 [2, 5] | other results |
| --- | --- | --- | --- | --- | --- |
| Cc1ccnc(Nc2cccc(-c3sc(N4CCN(C=O)CC4)nc3C)n2)c1 [Compound A-437, 4-{4-methyl-5-[6-(4-methylpyridin-2-ylamino)pyridin-2-yl]thiazol-2-yl}piperazine-1-carbaldehyde] | 0.1 to 1 µM | < 0.1 µM |  |  |  |
| Cc1ccnc(Nc2cccc(-c3cnc(CN[C@H]4CC[C@H](O)CC4)s3)n2)c1 [Compound A-191] |  |  | 0.1 to 1 µM | 0.1 to 1 µM |  |
| Cc1ccnc(Nc2cccc(-c3cnc(C4CCN(C(=O)C5CCNCC5)CC4)s3)n2)c1 [Compound A-292] |  |  | > 1 µM | 0.1 to 1 µM |  |
| Cc1ccnc(Nc2cccc(-c3cnc(C4CCN(C(=O)c5ccc(O)cc5)CC4)s3)n2)c1 [Compound A-378] | 0.1 to 1 µM | 0.1 to 1 µM |  |  |  |
| CC(=O)c1ccc(-c2cccc(Nc3cc(NC(C)C)ccn3)n2)s1 [Compound B-63] |  |  |  |  | IC50 [1, 6]: > 1 µM; IC50 [2, 7]: > 1 µM |
| Cc1ccnc(Nc2cccc(-c3ccc(C(=O)N(C)C)s3)n2)c1 [Compound B-22] |  |  |  |  | IC50 [1, 6]: > 1 µM; IC50 [2, 7]: 0.1 to 1 µM |
| Cc1ccnc(Nc2cccc(-c3cnc(N(CC(N)=O)C[C@H]4CC[C@H](C(=O)O)CC4)s3)n2)c1 [Compound A-599, trans-4-[(N-carbamoylmethyl-N-{5-[6-(4-methylpyridin-2-ylamino)pyridin-2-yl]thiazol-2-yl}amino)methyl]cyclohexanecarboxylic acid] | > 1 µM | < 0.1 µM |  |  |  |
| Cc1ccnc(Nc2cccc(-c3ccc(CC(C)O)s3)n2)c1 (stereo not shown) [Compound B-71] |  |  |  |  | IC50 [1, 6]: 0.1 to 1 µM; IC50 [2, 7]: 0.1 to 1 µM |
| CCN(c1ncc(-c2cccc(Nc3cc(C)ccn3)n2)s1)C1CCN(C(C)=O)CC1 [Compound A-534, 1-[4-(N-ethyl-N-{5-[6-(4-methylpyridin-2-ylamino)pyridin-2-yl]thiazol-2-yl}amino)piperidin-1-yl]ethanone] | 0.1 to 1 µM | < 0.1 µM |  |  |  |
| Cc1ccnc(Nc2cccc(-c3cnc(CNc4ccc(CC(=O)O)cc4)s3)n2)c1 [Compound A-262] |  |  | > 1 µM | 0.1 to 1 µM |  |
| CC(=O)N1CCC(N(c2ncc(-c3cccc(Nc4cc(C)ccn4)n3)s2)C(C)C)CC1 [Compound A-515, 1-[4-(N-isopropyl-N-{5-[6-(4-methylpyridin-2-ylamino)pyridin-2-yl]thiazol-2-yl}amino)piperidin-1-yl]ethanone] | > 1 µM | < 0.1 µM |  |  |  |
| CC(=O)c1ccc(-c2cccc(Nc3ccc(C)cn3)n2)s1 [Compound B-76] |  |  |  |  | IC50 [1, 6]: > 1 µM; IC50 [2, 7]: > 1 µM |
| CC(=O)N[C@@H](C)c1ncc(-c2cccc(Nc3cc(C(C)=O)ccn3)n2)s1 [Compound A-212] |  |  | 0.1 to 1 µM | 0.1 to 1 µM |  |
| Cc1ccnc(Nc2cccc(-c3cnc([C@H]4CC[C@H](C(=O)N5CCC[C@@H]5CO)CC4)s3)n2)c1 [Compound A-286, ((R)-2-hydroxymethylpyrrolidin-1-yl)-(trans-4-{5-[6-(4-methylpyridin-2-ylamino)pyridin-2-yl]thiazol-2-yl}cyclohexyl)metanone] |  |  | 0.1 to 1 µM | < 0.1 µM |  |
| Cc1ccnc(Nc2cccc(-c3sc(N4CCOCC4)nc3C)n2)c1 [Compound A-425, N-[6-(4-methyl-2-morpholin-4-ylthiazol-5-yl)pyridin-2-yl]-N-(4-methylpyridin-2-yl)amine] |  |  | 0.1 to 1 µM | < 0.1 µM |  |
| Cc1ccnc(Nc2cccc(-c3cnc(N4CC[C@@H](O)C4)s3)n2)c1 [Compound A-479, (R)-1-{5-[6-(4-methylpyridin-2-ylamino)pyridin-2-yl]thiazol-2-yl}pyrrolidin-3-ol] | 0.1 to 1 µM | < 0.1 µM |  |  |  |
| CC(=O)NC1CCN(Cc2ncc(-c3cccc(Nc4cc(C)ccn4)n3)s2)CC1 [Compound A-210] |  |  | > 1 µM | > 1 µM |  |
| CON(C)C(=O)c1ncc(-c2cccc(Nc3cc(C)ccn3)n2)s1 [Compound A-46, N-methoxy-N-methyl-5-[6-(4-methylpyridin-2-ylamino)pyridin-2-yl]thiazole-2-carboxamide] |  |  | 0.1 to 1 µM | < 0.1 µM |  |
| Cc1ccnc(Nc2cccc(-c3cnc(COC(=O)NCC4(O)CCCCC4)s3)n2)c1 [Compound A-195] |  |  | 0.1 to 1 µM | 0.1 to 1 µM |  |
| CON=C(C)c1ccc(-c2cccc(Nc3cc(C)ccn3)n2)s1 [Compound B-18] |  |  |  |  | IC50 [1, 6]: > 1 µM; IC50 [2, 7]: 0.1 to 1 µM |
| Cc1ccnc(Nc2cccc(-c3ccc(C=O)s3)n2)c1 [Compound B-2, 5-[6-(4-methylpyridin-2-ylamino)pyridin-2-yl]thiophene-2-carboxaldehyde] |  |  |  |  | IC50 [1, 6]: > 1 µM; IC50 [2, 7]: < 0.1 µM |

| SMILES | IC50 ([1]; Tables 1-x, compounds A) | IC50 [2, 3] | IC50 [1, 4] | IC50 [2, 5] | other results |
| --- | --- | --- | --- | --- | --- |
| Cc1ccnc(Nc2cccc(-c3ccc(C(=O)N4CCNCC4)s3)n2)c1 [Compound B-84, {5-[6-(4-methylpyridin-2-ylamino)pyridin-2-yl]thiophen-2-yl}piperazin-1-ylmethanone] |  |  |  |  | IC50 [1, 6]: 0.1 to 1 µM; IC50 [2, 7]: < 0.1 µM |
| Cc1ccnc(Nc2cccc(-c3cnc([C@H](CCCCNC(=O)OC(C)(C)C)NC(=O)OCc4ccccc4)s3)n2)c1 [Compound A-49] |  |  | > 1 µM | > 1 µM |  |
| O=C(O)[C@H]1CC[C@H](c2ncc(-c3cccc(Nc4cc(Cl)ccn4)n3)s2)CC1 [Compound A-204, trans-4-{5-[6-(4-chloropyridin-2-ylamino)pyridin-2-yl]thiazol-2-yl}cyclohexanecarboxylic acid] |  |  | 0.1 to 1 µM | < 0.1 µM |  |
| Cc1ccnc(Nc2cccc(-c3ccc(Cl)s3)n2)c1 [Compound B-16] |  |  |  |  | IC50 [1, 6]: > 1 µM; IC50 [2, 7]: 0.1 to 1 µM |
| Cc1ccnc(Nc2cccc(-c3cnc([C@H]4CC[C@@H](C#N)CC4)s3)n2)c1 [Compound A-317, cis-4-{5-[6-(4-methylpyridin-2-ylamino)pyridin-2-yl]thiazol-2-yl}cyclohexanecarbonitrile] |  |  | 0.1 to 1 µM | < 0.1 µM |  |
| COC(=O)COCc1ncc(-c2cccc(Nc3cc(C)ccn3)n2)s1 [Compound A-361] |  |  | 0.1 to 1 µM | 0.1 to 1 µM |  |
| Cc1ccnc(Nc2cccc(-c3cnc([C@H]4CC[C@H](C(=O)N5CCC(NC(=O)CO)C5)CC4)s3)n2)c1 (stereo partly shown) [Compound A-313] |  |  | 0.1 to 1 µM | 0.1 to 1 µM |  |
| CC(=O)N1CCC(N(CCO)c2ncc(-c3cccc(Nc4cc(C)ccn4)n3)s2)CC1 [Compound A-525, 1-[4-(N-(2-hydroxyethyl)-N-{5-[6-(4-methylpyridin-2-ylamino)pyridin-2-yl]thiazol-2-yl}amino)piperidin-1-yl]ethanone] | 0.1 to 1 µM | < 0.1 µM |  |  |  |
| Cc1ccnc(Nc2cccc(-c3cnc(C(=O)NC(C)CO)s3)n2)c1 (stereo not shown) [Compound A-54] |  |  | > 1 µM | 0.1 to 1 µM |  |
| Cc1ccnc(Nc2cccc(-c3cnc(CN4C[C@H](NCc5ccccc5)[C@@H](O)C4)s3)n2)c1 [Compound A-400] | 0.1 to 1 µM | 0.1 to 1 µM |  |  |  |
| CC(=O)NCC1CCN(c2ncc(-c3cccc(Nc4cc(C)ccn4)n3)s2)CC1 [Compound A-487, N-(1-{5-[6-(4-methylpyridin-2-ylamino)pyridin-2-yl]thiazol-2-yl}piperidin-4-ylmethyl)acetamide] | 0.1 to 1 µM | < 0.1 µM |  |  |  |
| Cc1ccnc(Nc2cccc(-c3cnc(CC(C)(C)CCO)s3)n2)c1 [Compound A-158, 3,3-dimethyl-4-{5-[6-(4-methylpyridin-2-ylamino)pyridin-2-yl]thiazol-2-yl}butan-1-ol] |  |  | 0.1 to 1 µM | < 0.1 µM |  |
| Cc1ccnc(Nc2cccc(-c3cnc(N4CCOc5c(C(=O)O)cccc54)s3)n2)c1 [Compound A-614, 4-{5-[6-(4-methylpyridin-2-ylamino)pyridin-2-yl]thiazol-2-yl}-3,4-dihydro-2H-benzo[1,4]oxazine-8-carboxylic acid] | > 1 µM | < 0.1 µM |  |  |  |
| Cc1ccnc(Nc2cccc(-c3cnc(N4CCC(CC(N)=O)CC4)s3)n2)c1 [Compound A-504, 2-(1-{5-[6-(4-methylpyridin-2-ylamino)pyridin-2-yl]thiazol-2-yl}piperidin-4-yl)acetamide] | 0.1 to 1 µM | < 0.1 µM |  |  |  |
| NC(=O)[C@H]1CC[C@H](c2ncc(-c3cccc(Nc4cc(Cl)ccn4)n3)s2)CC1 [Compound A-338, trans-4-{5-[6-(4-chloropyridin-2-ylamino)pyridin-2-yl]thiazol-2-yl}cyclohexanecarboxamide] |  |  | < 0.1 µM | < 0.1 µM |  |
| Cc1ccnc(Nc2cccc(-c3cnc(N4CCCC(C(=O)NCCO)C4)s3)n2)c1 (stereo not shown) [Compound A-478, N-(2-hydroxyethyl)-1-{5-[6-(4-methylpyridin-2-ylamino)pyridin-2-yl]thiazol-2-yl}piperidine-3-carboxamide] | 0.1 to 1 µM | < 0.1 µM |  |  |  |
| Cc1ccnc(Nc2cccc(-c3cnc(C(C)(C)CC(=O)O)s3)n2)c1 [Compound A-145] |  |  | > 1 µM | 0.1 to 1 µM |  |
| CC(=O)c1ccc(-c2cccc(Nc3ccccn3)n2)s1 [Compound B-67] |  |  |  |  | IC50 [1, 6]: > 1 µM; IC50 [2, 7]: 0.1 to 1 µM |
| Cc1ccnc(Nc2cccc(-c3cnc(N4CCC[C@@H](C(=O)O)C4)s3)n2)c1 [Compound A-531, (R)-1-{5-[6-(4-methylpyridin-2-ylamino)pyridin-2-yl]thiazol-2-yl}piperidine-3-carboxylic acid] | 0.1 to 1 µM | < 0.1 µM |  |  |  |
| CC(=O)N[C@H]1CN(Cc2ncc(-c3cccc(Nc4cc(C)ccn4)n3)s2)C[C@@H]1O [Compound A-414] | 0.1 to 1 µM | 0.1 to 1 µM |  |  |  |
